{"source": "patent US8613927B2", "about": "“High affinity human antibodies to human nerve growth factor” (Regeneron Pharmaceuticals, Inc., priority 2007, dated 2013)", "key": {"[1]": {"test_system": "transgenic mice of which the endogenous mouse NGF locus was replaced with the human NGF gene", "assay": "Seltzer neuropathic pain model in mice with human NGF gene, Hargreaves' test", "assay_type": "in vivo", "details": "50 mg/kg s.c. at day 8 post-surgery; p<0.05", "experimental": "These mice were used in a Seltzer neuropathic pain model to test REGN268 and control mAbs. Following the Seltzer surgery, these mice were tested at day 4 and at day 8 post-surgery to confirm that the thermal hyperalgesia had developed."}, "[2]": {"target": "T1, human NT-3 binding to human TrkA-hFc (Homo sapiens, UniProt P20783)", "T1 sequence (P20783 139-257)": "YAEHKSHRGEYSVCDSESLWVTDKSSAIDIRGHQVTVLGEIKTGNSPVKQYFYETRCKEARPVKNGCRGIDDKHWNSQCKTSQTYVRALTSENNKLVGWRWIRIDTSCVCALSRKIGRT", "assay": "BIACORE, NT-3 binding to TrkA-hFc surface in presence of antibody", "details": "20 nM NT-3 + 500 nM sample; normalized to IgG1 control", "experimental": "(§1) Human TrkA-hFc (9300 RU), human TrkB-hFc (6000 RU), human TrkC-hFc (9100 RU) and human p75-hFc (7500 RU) were covalently coupled to BIACORE® CM5 chip surfaces by amine-coupling procedure. […] The binding mixture was first incubated at room temperature to reach equilibrium (about 1 hr) and then was injected over the above TrkA-hFc, TrkB-hFc, TrkC-hFc and p75-hFc surfaces. The level of human NT-3 binding in each sample was measured. The binding RU from each sample mixture was normalized according to the RU value from the negative control sample (i.e., 20 nM human NT-3 with 500 nM AVASTIN®) and presented as % binding to Trk surfaces (Table 9)."}, "[3]": {"target": "T2, human NT-3 binding to human TrkC-hFc (Homo sapiens, UniProt P20783)", "T2 sequence (P20783 139-257)": "T1 sequence (P20783 139-257)", "assay": "BIACORE, NT-3 binding to TrkC-hFc surface in presence of antibody", "details": "20 nM NT-3 + 500 nM sample; normalized to IgG1 control", "experimental": "as §1"}, "C57BL/6 male mice": {"test_system": "C57BL/6 male mice", "assay": "Seltzer model of neuropathic pain, Hargreaves' test", "assay_type": "in vivo, mouse", "excerpt": "Neuropathic pain. The mouse Seltzer model of neuropathic pain (Malmberg et al. (1998) Pain 76:215-222) was used with C57BL/6 male mice, in which a partial nerve injury was produced by tying a tight ligature with a 7-0 silk suture around approximately ⅓ to ½ the diameter of the sciatic nerve of one single thigh per mouse. Post-surgery, the mice were allowed to recover for at least two days and then they were studied for several weeks post-surgery for thermal hyperalgesia in the Hargreaves' test. Controls were sham-operated mice in which the sciatic nerve was exposed and elevated but not tied. Following surgery, the mice were tested at day […] and at day 7 post-surgery to confirm that the thermal hyperalgesia had developed.\nFollowing the Seltzer surgery, mice were tested at days 5 and 7 post-surgery to confirm that the thermal hyperalgesia had developed."}}}
{"substance": "IgG1 Control: negative binding control, IgG1 control (AVASTIN®; Genentech, CA)", "values": [{"measurement": "relief of neuropathic pain in humanized NGF mice", "setting": "[1]", "value": "had no effect"}, {"measurement": "% binding to TrkA-hFc surface", "setting": "[2]", "value": 100, "unit": "%"}, {"measurement": "% binding to TrkC-hFc surface", "setting": "[3]", "value": 100, "unit": "%"}, {"measurement": "pain relief", "setting": "C57BL/6 male mice; 50 mg/kg s.c. or i.p. at day 7 post-surgery, p<0.001-0.05", "value": "no effect"}, {"measurement": "mean percent change from Hargreaves baseline", "setting": "C57BL/6 male mice; Table 23, Seltzer, 100 mg/kg s.c. at day 7, day 0 after surgery", "value": "0.0 ± 0.0", "unit": "%"}, {"measurement": "mean percent change from Hargreaves baseline", "setting": "C57BL/6 male mice; Table 23, Seltzer, 100 mg/kg s.c. at day 7, day 4", "value": "−46.9 ± 6.5", "unit": "%"}, {"measurement": "mean percent change from Hargreaves baseline", "setting": "C57BL/6 male mice; Table 23, Seltzer, 100 mg/kg s.c. at day 7, day 7", "value": "−55.3 ± 6.4", "unit": "%"}, {"measurement": "mean percent change from Hargreaves baseline", "setting": "C57BL/6 male mice; Table 23, Seltzer, 100 mg/kg s.c. at day 7, day 8", "value": "−55.6 ± 4.3", "unit": "%"}, {"measurement": "mean percent change from Hargreaves baseline", "setting": "C57BL/6 male mice; Table 23, Seltzer, 100 mg/kg s.c. at day 7, day 11", "value": "−57.3 ± 5.1", "unit": "%"}, {"measurement": "mean percent change from Hargreaves baseline", "setting": "C57BL/6 male mice; Table 23, Seltzer, 100 mg/kg s.c. at day 7, day 13", "value": "−59.7 ± 6.5", "unit": "%"}, {"measurement": "mean percent change from Hargreaves baseline", "setting": "C57BL/6 male mice; Table 23, Seltzer, 100 mg/kg s.c. at day 7, day 16", "value": "−51.2 ± 4.0", "unit": "%"}, {"measurement": "mean percent change from Hargreaves baseline", "setting": "C57BL/6 male mice; Table 23, Seltzer, 100 mg/kg s.c. at day 7, day 18", "value": "−57.7 ± 4.6", "unit": "%"}, {"measurement": "mean percent change from Hargreaves baseline", "setting": "C57BL/6 male mice; Table 23, Seltzer, 100 mg/kg s.c. at day 7, day 20", "value": "−53.2 ± 4.9", "unit": "%"}, {"measurement": "mean percent change from Hargreaves baseline", "setting": "C57BL/6 male mice; Table 23, Seltzer, 100 mg/kg s.c. at day 7, day 24", "value": "−54.9 ± 4.1", "unit": "%"}, {"measurement": "mean percent change from Hargreaves baseline", "setting": "C57BL/6 male mice; Table 23, Seltzer, 100 mg/kg s.c. at day 7, day 28", "value": "−51.81 ± 4.1", "unit": "%"}, {"measurement": "mean percent change from Hargreaves baseline", "setting": "C57BL/6 male mice; Table 23, Seltzer, 100 mg/kg s.c. at day 7, day 31", "value": "−49.7 ± 2.5", "unit": "%"}, {"measurement": "mean percent change from Hargreaves baseline", "setting": "C57BL/6 male mice; Table 23, Sham-operated, 100 mg/kg s.c. at day 7, day 0 after surgery", "value": "0.0 ± 0.0", "unit": "%"}, {"measurement": "mean percent change from Hargreaves baseline", "setting": "C57BL/6 male mice; Table 23, Sham, 100 mg/kg s.c. at day 7, day 4", "value": "−7.2 ± 3.7", "unit": "%"}, {"measurement": "mean percent change from Hargreaves baseline", "setting": "C57BL/6 male mice; Table 23, Sham, 100 mg/kg s.c. at day 7, day 7", "value": "8.7 ± 13.2", "unit": "%"}, {"measurement": "mean percent change from Hargreaves baseline", "setting": "C57BL/6 male mice; Table 23, Sham, 100 mg/kg s.c. at day 7, day 8", "value": "−9.4 ± 4.1", "unit": "%"}, {"measurement": "mean percent change from Hargreaves baseline", "setting": "C57BL/6 male mice; Table 23, Sham, 100 mg/kg s.c. at day 7, day 11", "value": "14.7 ± 11.4", "unit": "%"}, {"measurement": "mean percent change from Hargreaves baseline", "setting": "C57BL/6 male mice; Table 23, Sham, 100 mg/kg s.c. at day 7, day 13", "value": "−6.9 ± 3.3", "unit": "%"}, {"measurement": "mean percent change from Hargreaves baseline", "setting": "C57BL/6 male mice; Table 23, Sham, 100 mg/kg s.c. at day 7, day 16", "value": "2.3 ± 3.0", "unit": "%"}, {"measurement": "mean percent change from Hargreaves baseline", "setting": "C57BL/6 male mice; Table 23, Sham, 100 mg/kg s.c. at day 7, day 18", "value": "0.2 ± 2.8", "unit": "%"}, {"measurement": "mean percent change from Hargreaves baseline", "setting": "C57BL/6 male mice; Table 23, Sham, 100 mg/kg s.c. at day 7, day 20", "value": "3.6 ± 2.4", "unit": "%"}, {"measurement": "mean percent change from Hargreaves baseline", "setting": "C57BL/6 male mice; Table 23, Sham, 100 mg/kg s.c. at day 7, day 24", "value": "1.5 ± 2.9", "unit": "%"}, {"measurement": "mean percent change from Hargreaves baseline", "setting": "C57BL/6 male mice; Table 23, Sham, 100 mg/kg s.c. at day 7, day 28", "value": "0.7 ± 2.5", "unit": "%"}, {"measurement": "mean percent change from Hargreaves baseline", "setting": "C57BL/6 male mice; Table 23, Sham, 100 mg/kg s.c. at day 7, day 31", "value": "1.1 ± 2.3", "unit": "%"}, {"measurement": "mean percent change from Hargreaves baseline", "setting": "C57BL/6 male mice; Table 24, 100 mg/kg s.c. injected Day 7 post-surgery, Baseline", "value": "0.0 ± 0.0", "unit": "%"}, {"measurement": "mean percent change from Hargreaves baseline", "setting": "C57BL/6 male mice; Table 24, 100 mg/kg s.c. injected Day 14 post-surgery, Baseline", "value": "0.0 ± 0.0", "unit": "%"}, {"measurement": "mean percent change from Hargreaves baseline", "setting": "C57BL/6 male mice; Table 24, 100 mg/kg s.c. injected Day 21 post-surgery, Baseline", "value": "0.0 ± 0.0", "unit": "%"}, {"measurement": "mean percent change from Hargreaves baseline", "setting": "C57BL/6 male mice; Table 24, injected Day 7, Day 5 after surgery", "value": "−53.5 ± 5.9", "unit": "%"}, {"measurement": "mean percent change from Hargreaves baseline", "setting": "C57BL/6 male mice; Table 24, injected Day 7, Day 8", "value": "−56.7 ± 3.8", "unit": "%"}, {"measurement": "mean percent change from Hargreaves baseline", "setting": "C57BL/6 male mice; Table 24, injected Day 7, Day 10", "value": "−64.3 ± 2.6", "unit": "%"}, {"measurement": "mean percent change from Hargreaves baseline", "setting": "C57BL/6 male mice; Table 24, injected Day 7, Day 14", "value": "−66.9 ± 5.1", "unit": "%"}, {"measurement": "mean percent change from Hargreaves baseline", "setting": "C57BL/6 male mice; Table 24, injected Day 7, Day 15", "value": "−60.6 ± 4.0", "unit": "%"}, {"measurement": "mean percent change from Hargreaves baseline", "setting": "C57BL/6 male mice; Table 24, injected Day 7, Day 17", "value": "−58.9 ± 3.5", "unit": "%"}, {"measurement": "mean percent change from Hargreaves baseline", "setting": "C57BL/6 male mice; Table 24, injected Day 7, Day 21", "value": "−54.1 ± 9.6", "unit": "%"}, {"measurement": "mean percent change from Hargreaves baseline", "setting": "C57BL/6 male mice; Table 24, injected Day 7, Day 22", "value": "−56.3 ± 4.9", "unit": "%"}, {"measurement": "mean percent change from Hargreaves baseline", "setting": "C57BL/6 male mice; Table 24, injected Day 7, Day 24", "value": "−55.6 ± 5.1", "unit": "%"}, {"measurement": "mean percent change from Hargreaves baseline", "setting": "C57BL/6 male mice; Table 24, injected Day 7, Day 28", "value": "−54.1 ± 3.5", "unit": "%"}, {"measurement": "mean percent change from Hargreaves baseline", "setting": "C57BL/6 male mice; Table 24, injected Day 7, Day 32", "value": "−41.9 ± 8.3", "unit": "%"}, {"measurement": "mean percent change from Hargreaves baseline", "setting": "C57BL/6 male mice; Table 24, injected Day 7, Day 35", "value": "−43.9 ± 6.8", "unit": "%"}, {"measurement": "mean percent change from Hargreaves baseline", "setting": "C57BL/6 male mice; Table 24, injected Day 7, Day 42", "value": "−35.0 ± 6.6", "unit": "%"}, {"measurement": "mean percent change from Hargreaves baseline", "setting": "C57BL/6 male mice; Table 24, injected Day 14, Day 5 after surgery", "value": "−60.0 ± 4.8", "unit": "%"}, {"measurement": "mean percent change from Hargreaves baseline", "setting": "C57BL/6 male mice; Table 24, injected Day 14, Day 7", "value": "−54.4 ± 6.4", "unit": "%"}, {"measurement": "mean percent change from Hargreaves baseline", "setting": "C57BL/6 male mice; Table 24, injected Day 14, Day 8", "value": "−55.3 ± 6.1", "unit": "%"}, {"measurement": "mean percent change from Hargreaves baseline", "setting": "C57BL/6 male mice; Table 24, injected Day 14, Day 10", "value": "−52.8 ± 7.2", "unit": "%"}]}
